± gives the uncertainty stated by the source.
Experiment: xn = mol fraction of the nth substance listed

CCOC(=O)CCl + Brc1ccccc1
viscosity [mPa·s], 101.3 kPa
Settings	x1 = 0.1089	x1 = 0.2034	x1 = 0.3024	x1 = 0.3976	x1 = 0.5011	x1 = 0.6018	x1 = 0.6992	x1 = 0.7963	x1 = 0.8948
298.15 K	1.079 ± 0.014	1.079 ± 0.014	1.08 ± 0.014	1.082 ± 0.014	1.085 ± 0.014	1.087 ± 0.014	1.092 ± 0.014	1.096 ± 0.014	1.098 ± 0.014
303.15 K	1.012 ± 0.013	1.011 ± 0.013	1.01 ± 0.013	1.011 ± 0.013	1.012 ± 0.013	1.014 ± 0.013	1.017 ± 0.014	1.018 ± 0.014	1.01 ± 0.013
308.15 K	0.947 ± 0.013	0.943 ± 0.013	0.94 ± 0.013	0.938 ± 0.013	0.938 ± 0.013	0.942 ± 0.013	0.941 ± 0.013	0.941 ± 0.013	0.939 ± 0.013

CCCCCCCC(=O)OCC(COC(=O)CCCCCCC)OC(=O)CCCCCCC + CCCCO
viscosity [mPa·s], 101.33 kPa
Settings	x1 = 0.1	x1 = 0.2	x1 = 0.3	x1 = 0.4	x1 = 0.5	x1 = 0.6	x1 = 0.7	x1 = 0.8	x1 = 0.9
298 K	3.87 ± 0.05	5.49 ± 0.07	7.15 ± 0.09	8.84 ± 0.12	10.54 ± 0.15	12.28 ± 0.18	14.02 ± 0.22	16.05 ± 0.27	18 ± 0.32
303 K	3.4 ± 0.1	4.73 ± 0.06	6.13 ± 0.08	7.53 ± 0.1	8.91 ± 0.12	10.29 ± 0.15	11.73 ± 0.18	13.34 ± 0.22	14.82 ± 0.26
308 K	2.97 ± 0.04	4.12 ± 0.05	5.28 ± 0.07	6.46 ± 0.08	7.57 ± 0.1	8.74 ± 0.13	9.89 ± 0.15	11.2 ± 0.18	12.39 ± 0.22
313 K	2.62 ± 0.03	3.61 ± 0.04	4.59 ± 0.06	5.56 ± 0.07	6.51 ± 0.09	7.48 ± 0.11	8.44 ± 0.13	9.52 ± 0.16	10.52 ± 0.18

CNC=O + CC(=O)N(C)C
viscosity [mPa·s], 101 kPa
Settings	x2 = 0.0697	x2 = 0.0811	x2 = 0.1686	x2 = 0.2571	x2 = 0.3498	x2 = 0.4488	x2 = 0.545	x2 = 0.6533	x2 = 0.7606	x2 = 0.8777
293.15 K	1.824 ± 0.056	1.81 ± 0.055	1.709 ± 0.052	1.612 ± 0.05	1.516 ± 0.047	1.422 ± 0.044	1.337 ± 0.042	1.252 ± 0.039	1.176 ± 0.037	1.101 ± 0.035
303.15 K	1.543 ± 0.048	1.532 ± 0.047	1.452 ± 0.045	1.374 ± 0.043	1.296 ± 0.041	1.219 ± 0.039	1.151 ± 0.037	1.083 ± 0.035	1.021 ± 0.033	0.962 ± 0.031
313.15 K	1.325 ± 0.042	1.316 ± 0.041	1.252 ± 0.039	1.188 ± 0.038	1.125 ± 0.036	1.063 ± 0.034	1.007 ± 0.033	0.95 ± 0.031	0.9 ± 0.03	0.85 ± 0.028
323.15 K	1.157 ± 0.037	1.149 ± 0.037	1.096 ± 0.035	1.044 ± 0.034	0.991 ± 0.032	0.94 ± 0.031	0.893 ± 0.029	0.846 ± 0.028	0.803 ± 0.027	0.762 ± 0.026

CCOCCOCCOCC + CC1COC(=O)O1
viscosity [mPa·s], 101.33 kPa
Settings	298.15 K	308.15 K	318.15 K
x1 = 0.013	2.474 ± 0.028	2.024 ± 0.023	1.703 ± 0.02
x1 = 0.0542	2.418 ± 0.028	1.982 ± 0.023	1.658 ± 0.019
x1 = 0.1089	2.353 ± 0.027	1.923 ± 0.022	1.605 ± 0.019
x1 = 0.1594	2.288 ± 0.026	1.875 ± 0.022	1.555 ± 0.018
x1 = 0.2136	2.225 ± 0.026	1.827 ± 0.021	1.506 ± 0.018
x1 = 0.257	2.179 ± 0.025	1.782 ± 0.021	1.466 ± 0.017
x1 = 0.3304	2.08 ± 0.024	1.702 ± 0.02	1.39 ± 0.017
x1 = 0.4267	1.94 ± 0.023	1.589 ± 0.019	1.297 ± 0.016
x1 = 0.497	1.833 ± 0.022	1.504 ± 0.018	1.227 ± 0.015
x1 = 0.5874	1.717 ± 0.021	1.404 ± 0.017	1.152 ± 0.014
x1 = 0.6907	1.589 ± 0.019	1.306 ± 0.016	1.076 ± 0.014
x1 = 0.7876	1.474 ± 0.018	1.219 ± 0.015	1.01 ± 0.013
x1 = 0.8704	1.377 ± 0.017	1.148 ± 0.015	0.957 ± 0.012
x1 = 0.9264	1.316 ± 0.016	1.101 ± 0.014	0.922 ± 0.012
x1 = 0.9628	1.289 ± 0.016	1.071 ± 0.014	0.901 ± 0.012

CCOC(=O)CCl + CCCCCCCCC
viscosity [mPa·s], 101.33 kPa
Settings	x1 = 0.1004	x1 = 0.2033	x1 = 0.3013	x1 = 0.4018	x1 = 0.5019	x1 = 0.6012	x1 = 0.7037	x1 = 0.8037	x1 = 0.9012
298.15 K	0.66 ± 0.012	0.665 ± 0.013	0.686 ± 0.012	0.716 ± 0.013	0.755 ± 0.013	0.799 ± 0.014	0.849 ± 0.015	0.907 ± 0.017	0.982 ± 0.019
303.15 K	0.62 ± 0.011	0.623 ± 0.011	0.644 ± 0.011	0.67 ± 0.012	0.705 ± 0.013	0.743 ± 0.013	0.792 ± 0.014	0.842 ± 0.014	0.912 ± 0.015
308.15 K	0.58 ± 0.011	0.583 ± 0.01	0.602 ± 0.011	0.624 ± 0.011	0.654 ± 0.012	0.688 ± 0.013	0.735 ± 0.014	0.778 ± 0.014	0.843 ± 0.015

CC(C)OCCO + CCCCCCCCO
viscosity [mPa·s], 101 kPa
Settings	298.15 K	303.15 K	308.15 K
x1 = 0.0517	7.288 ± 0.44	6.066 ± 0.36	5.217 ± 0.31
x1 = 0.1016	6.902 ± 0.41	5.729 ± 0.34	4.938 ± 0.3
x1 = 0.1531	6.517 ± 0.39	5.401 ± 0.33	4.671 ± 0.28
x1 = 0.2013	6.178 ± 0.37	5.106 ± 0.31	4.415 ± 0.27
x1 = 0.2524	5.832 ± 0.35	4.817 ± 0.29	4.162 ± 0.25
x1 = 0.3033	5.49 ± 0.33	4.523 ± 0.27	3.906 ± 0.23
x1 = 0.4	4.893 ± 0.3	4.027 ± 0.24	3.482 ± 0.21
x1 = 0.5012	4.314 ± 0.26	3.556 ± 0.21	3.086 ± 0.19
x1 = 0.618	3.706 ± 0.22	3.07 ± 0.18	2.691 ± 0.16
x1 = 0.7017	3.325 ± 0.2	2.776 ± 0.17	2.459 ± 0.15
x1 = 0.8102	2.849 ± 0.17	2.418 ± 0.15	2.155 ± 0.13
x1 = 0.8492	2.721 ± 0.16	2.322 ± 0.14	2.091 ± 0.13
x1 = 0.9046	2.477 ± 0.15	2.157 ± 0.13	1.986 ± 0.12
x1 = 0.9472	2.36 ± 0.14	2.064 ± 0.12	1.911 ± 0.12

— the CheMixHub viscosity set
